The values that follow come from ChEMBL document CHEMBL1909046, “DrugMatrix in vitro pharmacology data”.

Data set [1] addresses 5-hydroxytryptamine receptor 1B (Rattus norvegicus, UniProt P28564). In kind it is cell membranes, Wistar, Cerebral cortex, Membrane.
Data set [2] deals with Kappa-type opioid receptor (Homo sapiens, UniProt P41145). Briefly: DRUGMATRIX: Opiate kappa (OP2, KOP) radioligand binding (ligand: [3H] Diprenorphine). Particulars: hek293; Not Active = under 50% inhibition at 10 µM. In kind it is cell membranes, HEK293, Membrane.
Chain of Kappa-type opioid receptor (P41145 whole entry): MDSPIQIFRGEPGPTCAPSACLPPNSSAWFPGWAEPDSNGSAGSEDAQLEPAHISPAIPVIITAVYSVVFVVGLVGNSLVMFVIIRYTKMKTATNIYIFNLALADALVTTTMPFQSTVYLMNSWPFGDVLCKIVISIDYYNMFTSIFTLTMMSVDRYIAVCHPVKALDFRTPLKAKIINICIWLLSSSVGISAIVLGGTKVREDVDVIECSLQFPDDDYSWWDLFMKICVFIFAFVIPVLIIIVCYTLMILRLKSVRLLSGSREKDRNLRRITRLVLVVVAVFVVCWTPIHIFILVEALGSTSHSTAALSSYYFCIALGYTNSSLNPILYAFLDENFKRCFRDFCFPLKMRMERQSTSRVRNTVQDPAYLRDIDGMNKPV
Data set [3] in a line: DRUGMATRIX: Glutamate, NMDA, Phencyclidine radioligand binding (ligand: [3H] TCP). In kind it is cell membranes, Rattus norvegicus, Wistar, Cerebral cortex, Membrane. Particulars: Not Active = under 50% inhibition at 10 µM.
A short description of data set [4]: DRUGMATRIX: Platelet-Derived Growth Factor (PDGF) radioligand binding (ligand: [125I] PDGF). The class given is cell-based. The following applies: nih3t3; Not Active = under 50% inhibition at 10 µM.
The target in a further data set is Cytochrome P450 2C9 (Homo sapiens, UniProt P11712). Particulars: bti-tn-5b1-4. Further: in other assays of this panel Not Active means under 50% inhibition at 10 µM.
Chain of Cytochrome P450 2C9 (P11712 whole entry): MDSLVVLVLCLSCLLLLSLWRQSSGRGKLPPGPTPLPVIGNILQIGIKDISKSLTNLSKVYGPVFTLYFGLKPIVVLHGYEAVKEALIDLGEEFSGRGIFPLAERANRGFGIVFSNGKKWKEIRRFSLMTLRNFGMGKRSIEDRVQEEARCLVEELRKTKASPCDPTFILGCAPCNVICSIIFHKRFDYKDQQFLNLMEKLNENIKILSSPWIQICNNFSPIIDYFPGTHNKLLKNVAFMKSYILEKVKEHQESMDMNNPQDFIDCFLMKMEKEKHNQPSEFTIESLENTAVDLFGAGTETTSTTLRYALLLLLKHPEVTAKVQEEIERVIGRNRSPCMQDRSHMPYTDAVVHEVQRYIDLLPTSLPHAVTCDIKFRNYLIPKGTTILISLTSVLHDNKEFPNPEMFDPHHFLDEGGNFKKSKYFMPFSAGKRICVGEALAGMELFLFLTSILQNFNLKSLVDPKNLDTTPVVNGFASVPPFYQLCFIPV
A further data set addresses Substance-P receptor (Homo sapiens, UniProt P25103). In kind it is cell membranes, Membrane. Particulars: cho.
Data set [5] has as its target Voltage-gated inwardly rectifying potassium channel KCNH2 (Homo sapiens, UniProt Q12809). The following applies: hek293. Further: in other assays of this panel Not Active means under 50% inhibition at 10 µM.

A word on the IC50: it is the midpoint of a concentration-inhibition curve. What is called Ki is the equilibrium dissociation constant of an inhibitor or competing ligand from its target.

Chain of 5-hydroxytryptamine receptor 1B (P28564 whole entry): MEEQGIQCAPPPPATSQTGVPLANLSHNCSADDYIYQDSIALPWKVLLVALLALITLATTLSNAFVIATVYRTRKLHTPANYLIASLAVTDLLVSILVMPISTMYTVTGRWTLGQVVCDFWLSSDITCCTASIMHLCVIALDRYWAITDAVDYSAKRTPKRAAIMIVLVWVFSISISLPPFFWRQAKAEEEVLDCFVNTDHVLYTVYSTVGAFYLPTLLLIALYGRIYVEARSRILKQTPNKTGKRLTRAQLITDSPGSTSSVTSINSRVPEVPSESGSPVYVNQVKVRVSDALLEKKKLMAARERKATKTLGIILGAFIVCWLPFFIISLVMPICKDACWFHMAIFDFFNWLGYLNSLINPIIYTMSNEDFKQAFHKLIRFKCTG
Chain of Voltage-gated inwardly rectifying potassium channel KCNH2 (Q12809 whole entry): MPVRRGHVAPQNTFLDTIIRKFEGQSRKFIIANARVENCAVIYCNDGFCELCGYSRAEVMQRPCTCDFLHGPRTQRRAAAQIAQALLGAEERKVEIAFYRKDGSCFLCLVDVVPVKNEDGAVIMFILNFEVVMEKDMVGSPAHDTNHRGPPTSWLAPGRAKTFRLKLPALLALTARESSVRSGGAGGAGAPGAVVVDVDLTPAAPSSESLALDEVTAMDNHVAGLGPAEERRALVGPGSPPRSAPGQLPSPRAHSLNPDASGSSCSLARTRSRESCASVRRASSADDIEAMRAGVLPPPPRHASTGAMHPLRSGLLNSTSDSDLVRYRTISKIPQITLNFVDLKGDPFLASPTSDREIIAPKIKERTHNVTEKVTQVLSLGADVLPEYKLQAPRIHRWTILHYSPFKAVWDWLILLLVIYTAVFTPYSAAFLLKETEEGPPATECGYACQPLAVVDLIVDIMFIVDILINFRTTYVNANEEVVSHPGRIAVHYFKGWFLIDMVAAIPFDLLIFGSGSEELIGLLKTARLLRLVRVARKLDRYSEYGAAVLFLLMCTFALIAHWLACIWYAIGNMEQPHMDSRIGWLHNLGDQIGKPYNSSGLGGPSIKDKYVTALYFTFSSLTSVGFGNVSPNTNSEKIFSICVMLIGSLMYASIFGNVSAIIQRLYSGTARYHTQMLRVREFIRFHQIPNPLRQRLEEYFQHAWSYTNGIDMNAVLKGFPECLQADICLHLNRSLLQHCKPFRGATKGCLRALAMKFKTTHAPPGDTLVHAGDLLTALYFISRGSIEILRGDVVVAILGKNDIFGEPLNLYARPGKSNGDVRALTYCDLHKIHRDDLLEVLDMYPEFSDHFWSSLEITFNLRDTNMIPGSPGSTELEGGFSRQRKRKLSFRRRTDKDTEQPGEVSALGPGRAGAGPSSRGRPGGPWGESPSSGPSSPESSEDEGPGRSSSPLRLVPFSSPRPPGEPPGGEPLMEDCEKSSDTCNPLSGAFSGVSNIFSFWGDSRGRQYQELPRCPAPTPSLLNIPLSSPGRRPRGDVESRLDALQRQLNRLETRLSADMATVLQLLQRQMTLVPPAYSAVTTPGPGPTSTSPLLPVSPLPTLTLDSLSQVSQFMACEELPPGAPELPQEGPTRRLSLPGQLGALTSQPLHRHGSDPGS
Chain of Substance-P receptor (P25103 whole entry): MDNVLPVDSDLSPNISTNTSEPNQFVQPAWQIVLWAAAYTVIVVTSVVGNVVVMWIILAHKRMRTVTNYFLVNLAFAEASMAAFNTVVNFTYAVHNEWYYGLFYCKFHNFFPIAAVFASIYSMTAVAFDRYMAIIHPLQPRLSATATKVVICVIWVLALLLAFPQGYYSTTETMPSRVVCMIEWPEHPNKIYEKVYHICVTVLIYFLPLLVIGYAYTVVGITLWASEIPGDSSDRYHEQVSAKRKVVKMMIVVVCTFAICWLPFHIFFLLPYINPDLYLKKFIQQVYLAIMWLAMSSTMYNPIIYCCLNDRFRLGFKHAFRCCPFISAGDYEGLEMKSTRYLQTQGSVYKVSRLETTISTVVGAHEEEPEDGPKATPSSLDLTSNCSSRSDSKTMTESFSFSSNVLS

For the compound `O=c1ccc2ccccc2o1` [COUMARIN], the IC50 result (in data set [1]; in data set [2]; in data set [3]; in data set [4]; against Cytochrome P450 2C9; against Substance-P receptor) was “Not Active” throughout. For the same compound, the IC50 entry in data set [5] was “Not Active”. Besides, the Ki entry (in data set [3]; in data set [4]; on Cytochrome P450 2C9; in data set [5]) was “Not Active” each time.
As for `COc1ccc2c(c1)[C@]13CCCC[C@@H]1[C@H](C2)N(C)CC3` [DEXTROMETHORPHAN], the IC50 entry in data set [1] was “Not Active”; in data set [2], “Not Active”; in data set [3] (read-out: IC50), 2.42 µM; in data set [4] it was “Not Active”; against Cytochrome P450 2C9, “Not Active”; against Substance-P receptor it was “Not Active”. Moreover, the IC50 result in data set [5] was “Not Active”. Further, the Ki in data set [3] (read-out: Ki) was 1.64 µM; in data set [4], “Not Active”; at Cytochrome P450 2C9, “Not Active”; in data set [5], “Not Active”.
With `CC(=O)Nc1c(I)c(NC(C)=O)c(I)c(C(=O)O)c1I` [DIATRIZOIC ACID], the IC50 entry (in data set [1]; in data set [2]; in data set [3]; in data set [4]; at Cytochrome P450 2C9; against Substance-P receptor) was “Not Active” in each case. In addition, the IC50 entry in data set [5] is listed as “Not Active”. In addition, the Ki entry (in data set [3]; in data set [4]; on Cytochrome P450 2C9; in data set [5]) was “Not Active” throughout.
`O=C(O)Cc1ccccc1Nc1c(Cl)cccc1Cl` [DICLOFENAC]: the IC50 entry (in data set [1]; in data set [2]; in data set [3]; in data set [4]; against Cytochrome P450 2C9; against Substance-P receptor) was “Not Active” in each case. For the same compound, the IC50 result in data set [5] is given as “Not Active”. The Ki result (in data set [3]; in data set [4]; on Cytochrome P450 2C9; in data set [5]) was “Not Active” in each case.
Consider `C[C@H]1O[C@@H](O[C@H]2[C@@H](O)C[C@H](O[C@H]3[C@@H](O)C[C@H](O[C@H]4CC[C@@]5(C)[C@H](CC[C@@H]6[C@@H]5CC[C@]5(C)[C@@H](C7=CC(=O)OC7)CC[C@]65O)C4)O[C@@H]3C)O[C@@H]2C)C[C@H](O)[C@@H]1O` [DIGITOXIN], for which the IC50 result (in data set [1]; in data set [2]; in data set [3]; in data set [4]; against Cytochrome P450 2C9; at Substance-P receptor) was “Not Active” each time. In addition, the IC50 result in data set [5] is “Not Active”. The Ki entry (in data set [3]; in data set [4]; at Cytochrome P450 2C9; in data set [5]) was “Not Active” each time.
`CCN1CC(CCN2CCOCC2)C(c2ccccc2)(c2ccccc2)C1=O` (centres undefined) [DOXAPRAM]: the IC50 entry (in data set [1]; in data set [2]; in data set [3]; in data set [4]; on Cytochrome P450 2C9; at Substance-P receptor) was “Not Active” each time. In addition, the IC50 entry in data set [5] is on record as “Not Active”. Besides, the Ki entry (in data set [3]; in data set [4]; at Cytochrome P450 2C9; in data set [5]) was “Not Active” each time.
Consider `Cn1c(=O)c2c(ncn2CC2OCCO2)n(C)c1=O` [DOXOFYLLINE], for which the IC50 entry (in data set [1]; in data set [2]; in data set [3]; in data set [4]; on Cytochrome P450 2C9; against Substance-P receptor) was “Not Active” throughout. Moreover, in data set [5], the IC50 result is given as “Not Active”. Also, the Ki result (in data set [3]; in data set [4]; at Cytochrome P450 2C9; in data set [5]) was “Not Active” in each case.
Regarding `COc1cccc2c1C(=O)c1c(O)c3c(c(O)c1C2=O)C[C@@](O)(C(=O)CO)C[C@@H]3O[C@H]1C[C@H](N)[C@H](O)[C@H](C)O1` [DOXORUBICIN], the IC50 was 34.5 µM in data set [1] (read-out: IC50); “Not Active” in data set [2]; “Not Active” in data set [3]; “Not Active” in data set [4]; “Not Active” on Cytochrome P450 2C9; “Not Active” against Substance-P receptor. The IC50 result in data set [5] is listed as “Not Active”. For the same compound, the Ki in data set [1] (read-out: Ki) is 15.7 µM; in data set [3] it was “Not Active”; in data set [4] it was “Not Active”; at Cytochrome P450 2C9, “Not Active”; in data set [5], “Not Active”.
With `COc1cccc2c1C(=O)c1c(O)c3c(c(O)c1C2=O)C[C@@](O)(C(=O)CO)C[C@@H]3O[C@H]1C[C@H](N)[C@@H](O)[C@H](C)O1` [EPIRUBICIN], the IC50 result (in data set [1]; in data set [2]; in data set [3]; in data set [4]; at Cytochrome P450 2C9; against Substance-P receptor) was “Not Active” throughout. Besides, in data set [5], the IC50 entry was “Not Active”. Besides, the Ki result (in data set [3]; in data set [4]; on Cytochrome P450 2C9; in data set [5]) was “Not Active” throughout.
Consider `C[C@]12CC[C@@H]3c4ccc(OC(=O)c5ccccc5)cc4CC[C@H]3[C@@H]1CC[C@@H]2O` [ESTRADIOL BENZOATE], for which the IC50 entry (in data set [1]; in data set [2]; in data set [3]; in data set [4]; against Cytochrome P450 2C9; against Substance-P receptor) was “Not Active” in each case. The IC50 entry in data set [5] is on record as “Not Active”. Besides, the Ki entry (in data set [3]; in data set [4]; on Cytochrome P450 2C9; in data set [5]) was “Not Active” in each case.
Consider `CC[C@@H](CO)NCCN[C@@H](CC)CO` [ETHAMBUTOL], for which the IC50 result (in data set [1]; in data set [2]; in data set [3]; in data set [4]; against Cytochrome P450 2C9; at Substance-P receptor) was “Not Active” throughout. In addition, the IC50 result in data set [5] is “Not Active”. Further, the Ki result (in data set [3]; in data set [4]; on Cytochrome P450 2C9; in data set [5]) was “Not Active” each time.
Regarding `CC1(C)O[C@@H]2C[C@H]3[C@@H]4C[C@H](F)C5=CC(=O)C=C[C@]5(C)[C@H]4[C@@H](O)C[C@]3(C)[C@]2(C(=O)CO)O1` [FLUNISOLIDE], the IC50 result (in data set [1]; in data set [2]; in data set [3]; in data set [4]; at Cytochrome P450 2C9; against Substance-P receptor) was “Not Active” throughout. For the same compound, the IC50 entry in data set [5] is “Not Active”. Moreover, the Ki entry (in data set [3]; in data set [4]; on Cytochrome P450 2C9; in data set [5]) was “Not Active” throughout.
Consider `CC1(C)O[C@@H]2C[C@H]3[C@@H]4C[C@H](F)C5=CC(=O)C=C[C@]5(C)[C@@]4(F)[C@@H](O)C[C@]3(C)[C@]2(C(=O)CO)O1` [FLUOCINOLONE ACETONIDE], for which the 50% inhibitory concentration (IC50) result (in data set [1]; in data set [2]; in data set [3]; in data set [4]; against Cytochrome P450 2C9; against Substance-P receptor) was “Not Active” throughout. Further, in data set [5], the 50% inhibitory concentration (IC50) result was “Not Active”. For the same compound, the Ki entry (in data set [3]; in data set [4]; on Cytochrome P450 2C9; in data set [5]) was “Not Active” in each case.
